# In patent US20230250070A1, “DIHYDROOXAZOLE AND THIOUREA DERIVATIVES MODULATING THE NLRP3 INFLAMMASOME PATHWAY” (AC IMMUNE SA, priority 2020, published 2023):
# Columns and labels:
# [1] = system: NLRP3 inflammasome pathway; assay: NLRP3 inflammasome pathway activation assay, MSU stimulation, IL-1β release (AlphaLISA); format: cell-based; settings: PMA-differentiated, LPS-primed human monocyte-like cells, MSU 150 µg/ml for 3 h
# Method: (§1) The following assays were used to determine the inhibitory activity of test compounds on the NLRP3 inflammasome pathway using common stimuli Nigericin (Invivogen) or monosodium urate crystals (MSU) (Invivogen).
# (§2) Human monocyte-like cells were cultured in RPMI-1640 Glutamax medium supplemented with 10% heat inactivated FCS and 50 U/ml penicillin-streptomycin (Life Technologies).
# (§3) Human monocyte-like cells were seeded at 75000 per well in a 96-well plate and were differentiated overnight into macrophages with 10 ng/ml PMA (Phorbol Myristate Acetate). The following day, medium containing 10 ng/ml LPS (Lipopolysaccharide) were added. After 3 hours of LPS priming, concentrations of test compound in the range from 100 µM to 6 nM were added 30 min prior to NLRP3 inflammasome pathway stimulation with Nigericin 3.75 µM or MSU 150 µg/ml for 3 h.
# (§4) For IL-1β quantification, supernatants were analyzed using AlphaLISA kits according to the manufacturer’s instructions (Perkin Elmer AlphaLISA AL220F). Briefly, in a 384-well OptiPlate™ microplate, 5 µl of sample was mixed, with 20 µl of AlphaLISA Anti-Analyte Acceptor beads (10 µg/mL final) and Biotinylated Antibody Anti-Analyte (1 nM final). Then, incubated 60 minutes at RT, then 25 µL of 2X SA-Donor beads (40 µg/mL final) were added and incubated 30 minutes at RT in the dark. Reading was done using an EnVision-Alpha Reader (PerkinElmer).
# (§5) IC50(concentration corresponding to 50% inhibition) were determined using GraphPad Prism 8.
# [2] = system: NLRP3 inflammasome pathway; assay: NLRP3 inflammasome pathway activation assay, Nigericin stimulation, IL-1β release (AlphaLISA); format: cell-based; settings: PMA-differentiated, LPS-primed human monocyte-like cells, Nigericin 3.75 µM for 3 h
# Method: as §1, §2, §3, §4, §5
Compound,IC50 [1],"IC50 ([2]; Homo sapiens, 3 h)",IC50 [2]
"CCOC(=O)C1(c2cccc(Cl)c2)CN=C(Nc2c3c(cc4c2CCC4)CCC3)O1 (stereo not shown) [Example 13, Ethyl 5-(3-chlorophenyl)-2-((1,2,3,5,6,7-hexahydro-s-indacene-4-yl)amino)-4,5-dihvdrooxazole-5-carboxylate]",< 1000 nM,< 1000 nM,
"CCOC(=O)C1(c2ccccc2)CN=C(Nc2c3c(c(F)c4c2CCC4)CCC3)O1 (racemic) [Example 30, ethyl 2-((8-fluoro-1,2,3,5,6,7-hexahydro-s-indacen-4-yl)amino)-5-phenyl-4,5-dihydrooxazole-5-carboxylate]",< 1000 nM,1000 to 10000 nM,
"CCOC(=O)C1(c2nccn2C)CN=C(Nc2c3c(cc4c2CCC4)CCC3)O1 (single isomer, unassigned) [Example 5, Ethyl 2-((1,2,3,5,6,7-hexahydro-s-indacen-4-yl)amino)-5-(1-methyl-1H-imidazol-2-yl)-4,5-dihydrooxazole-5-carboxylate]",< 1000 nM,,< 1000 nM
"CC(C)(C)OC(=O)C1(c2ccno2)CN=C(Nc2c3c(cc4c2CCC4)CCC3)O1 (racemic) [Example 90, tert-butyl 2-((1,2,3,5,6,7-hexahydro-s-indacen-4-yl)amino)-5-(isoxazol-5-yl)-4,5-dihydrooxazole-5-carboxylate]",1000 to 10000 nM,< 1000 nM,
"CCOC(=O)C(O)(CNC(=S)Nc1c2c(cc3c1CCC3)CCC2)c1cc(C(C)(C)O)on1 (racemic) [Example 14, Ethyl 3-(3-(1,2,3,5,6,7-hexahydro-s-indacen-4-yl)thioureido)-2-hydroxy-2-(5-(2-hydroxypropan-2-yl)isoxazol-3-yl)propanoate]",< 1000 nM,,< 1000 nM
"CCOC(=O)C1(c2ccc(Cl)cc2)CN=C(Nc2c3c(cc4c2CCC4)CCC3)O1 (single isomer, unassigned) [Example 10a, Ethyl 5-(4-chlorophenyl)-2-((1,2,3,5,6,7-hexahydro-s-indacene-4-yl)amino)-4,5-dihydrooxazole-5-carboxylate]",< 1000 nM,,10000 to 30000 nM
"CCOC(=O)C1(c2ccc(Cl)cc2)CN=C(Nc2c3c(cc4c2CCC4)CCC3)O1 (racemic) [Example 10, Ethyl 5-(4-chlorophenyl)-2-((1,2,3,5,6,7-hexahydro-s-indacene-4-yl)amino)-4,5-dihydrooxazole-5-carboxylate]",1000 to 10000 nM,1000 to 10000 nM,
"2-((1,2,3,5,6,7-hexahydro-s-indacen-4-yl)amino)-5-(5-isopropylisoxazol-3-yl)-4,5-dihydrooxazole-5-carboxylate [Example 28]",< 1000 nM,,1000 to 10000 nM
"CCOC(=O)C1(c2ccccn2)CN=C(Nc2c3c(cc4c2CCC4)CCC3)O1 (racemic) [Example 8, Ethyl 2-((1,2,3,5,6,7-hexahydro-s-indacen-4-yl)amino)-5-(pyridin-2-yl)-4,5-dihydrooxazole-5-carboxylate]",< 1000 nM,< 1000 nM,
"CCOC(=O)C1(c2ncccn2)CN=C(Nc2c3c(cc4c2CCC4)CCC3)O1 (racemic) [Example 50, ethyl 2-((1,2,3,5,6,7-hexahydro-s-indacen-4-yl)amino)-5-(pyrimidin-2-yl)-4,5-dihydrooxazole-5-carboxylate]",1000 to 10000 nM,< 1000 nM,
"CCOC(=O)C1(c2ccccn2)CN=C(Nc2c3c(cc4c2CCC4)CCC3)O1 (single isomer, unassigned) [Example 9, Ethyl 2-((1,2,3,5,6,7-hexahydro-s-indacen-4-yl)amino)-5-(pyridin-2-yl)-4,5-dihydrooxazole-5-carboxylate]",< 1000 nM,,< 1000 nM
"CCOC(=O)C1(c2ccccc2)CN=C(Nc2c3c(cc4c2CCC4)CCC3)O1 (stereo not shown) [Example 2, Ethyl 2-((1,2,3,5,6,7-hexahydro-s-indacen-4-yl)amino)-5-phenyl-4,5-dihvdrooxazole-5-carboxylate]",1000 to 10000 nM,,1000 to 10000 nM
"CCOC(=O)C1(c2cccnc2)CN=C(Nc2c3c(cc4c2CCC4)CCC3)O1 (single isomer, unassigned) [Example 11, Ethyl 2-((1,2,3,5,6,7-hexahydro-s-indacen-4-yl)amino)-5-(pyridin-3-yl)-4,5-dihydrooxazole-5-carboxylate]",< 1000 nM,,< 1000 nM
"CCOC(=O)C(O)(CNC(=S)Nc1c2c(cc3c1CCC3)CCC2)c1cc(C(C)(C)O)on1 (single isomer, unassigned) [Example 14a, Ethyl 3-(3-(1,2,3,5,6,7-hexahydro-s-indacen-4-yl)thioureido)-2-hydroxy-2-(5-(2-hydroxypropan-2-yl)isoxazol-3-yl)propanoate]",< 1000 nM,,< 1000 nM
"CCOC(=O)C1(c2nccn2C)CN=C(Nc2c3c(cc4c2CCC4)CCC3)O1 (stereo not shown) [Example 4, Ethyl 2-((1,2,3,5,6,7-hexahydro-s-indacen-4-vl)amino)-5-(1-methyl-1H-imidazol-2-yl)-4,5-dihydrooxazole-5-carboxylate]",< 1000 nM,,< 1000 nM
"CCOC(=O)C1(c2cccnc2)CN=C(Nc2c3c(cc4c2CCC4)CCC3)O1 (stereo not shown) [Example 11a, Ethyl 2-((1,2,3,5,6,7-hexahydro-s-indacen-4-yl)amino)-5-(pyridin-3-yl)-4,5-dihvdrooxazole-5-carboxylate]",< 1000 nM,< 1000 nM,
"CCOC(=O)C1(c2ccc(OC)nc2)CN=C(Nc2c3c(cc4c2CCC4)CCC3)O1 (single isomer, unassigned) [Example 7, Ethyl 2-((1,2,3,5,6,7-hexahydro-s-indacen-4-yl)amino)-5-(6-methoxypyridin-3-yl)-4,5-dihydrooxazole-5-carboxylate]",< 1000 nM,,< 1000 nM
"CC(C)(O)c1cc(C2(C(=O)O)CN=C(Nc3c4c(cc5c3CCC5)CCC4)O2)no1 (stereo not shown) [Example 22, 2-((1,2,3,5,6,7-hexahydro-s-indacen-4-yl)amino)-5-(5-(2-hydroxypropan-2-yl)isoxazol-3-yl)-4,5-dihydrooxazole-5-carboxylic Acid]",< 1000 nM,1000 to 10000 nM,
"CCOC(=O)C1(c2cc(C(C)(C)O)on2)CN=C(Nc2c3c(cc4c2CCC4)CCC3)O1 (stereo not shown) [Example 15, Ethyl 2-((1,2,3,5,6,7-hexahvdro-s-indacen-4-yl)amino)-5-(5-(2-hydroxypropan-2-yl)isoxazol-3-yl)-4,5-dihydrooxazole-5-carboxylate]",< 1000 nM,< 1000 nM,
"CCOC(=O)C(O)(CNC(=S)Nc1c2c(cc3c1CCC3)CCC2)c1cc(C(C)C)on1 (stereo not shown) [Example 46, ethyl 3-(3-(1,2,3,5,6,7-hexahydro-s-indacen-4-yl)thioureido)-2-hydroxy-2-(5-isopropylisoxazol-3-yl)propanoate]",1000 to 10000 nM,,< 1000 nM
"CCOC(=O)C1(c2ccccc2)CN=C(Nc2c3c(cc4c2CCC4)CCC3)O1 (racemic) [Example 1, Ethyl 2-((1,2,3,5,6,7-hexahydro-s-indacen-4-yl)amino)-5-phenyl-4,5-dihydrooxazole-5-carboxylate]",< 1000 nM,< 1000 nM,
"CCOC(=O)C1(c2cccc(Cl)c2)CN=C(Nc2c3c(cc4c2CCC4)CCC3)O1 (single isomer, unassigned) [Example 13a, Ethyl 5-(3-chlorophenyl)-2-((1,2,3,5,6,7-hexahydro-s-indacen-4-yl)amino)-4,5-dihydrooxazole-5-carboxylate]",< 1000 nM,,< 1000 nM
"CCOC(=O)C1(c2cnc(OC)nc2)CN=C(Nc2c3c(cc4c2CCC4)CCC3)O1 (racemic) [Example 32, ethyl 2-((1,2,3,5,6,7-hexahydro-s-indacen-4-yl)amino)-5-(2-methoxypyrimidin-5-yl)-4,5-dihydrooxazole-5-carboxylate]",< 1000 nM,,
"CCCCCOC(=O)C1(c2ccno2)CN=C(Nc2c3c(cc4c2CCC4)CCC3)O1 (racemic) [Example 92, pentyl 2-((1,2,3,5,6,7-hexahydro-s-indacen-4-yl)amino)-5-(isoxazol-5-yl)-4,5-dihydrooxazole-5-carboxylate]",< 1000 nM,,
"O=C(O)C1(c2ccccn2)CN=C(Nc2c3c(cc4c2CCC4)CCC3)O1 (stereo not shown) [Example 25, 2-((1,2,3,5,6,7-hexahydro-s-indacen-4-yl)amino)-5-(pyridin-2-yl)-4,5-dihydrooxazole-5-carboxylic acid]",1000 to 10000 nM,,
"CCOC(=O)C1(c2cnccn2)CN=C(Nc2c3c(cc4c2CCC4)CCC3)O1 (racemic) [Example 49, ethyl 2-((1,2,3,5,6,7-hexahydro-s-indacen-4-yl)amino)-5-(pyrazin-2-yl)-4,5-dihydrooxazole-5-carboxylate]",< 1000 nM,,
"COC(=O)C1(c2ccno2)CN=C(Nc2c3c(cc4c2CCC4)CCC3)O1 (racemic) [Example 87, methyl 2-((1,2,3,5,6,7-hexahydro-s-indacen-4-yl)amino)-5-(isoxazol-5-yl)-4,5-dihydrooxazole-5-carboxylate]",< 1000 nM,,
